# In US20240116893A1, “Compounds for Disease Treatment” (Duke University, priority 2021, published 2024):
# “Also recorded” adds a separate entry of the source. Like-named read-outs stand apart in the source and are kept apart here.
# Experiments:
# THP-1 human macrophages = experiment: Cytokine expression in THP-1 macrophages stimulated with LPS and IFNγ; type: cell-based; conditions: for attenuation (reduction) of TNF expression: 10 μM, LPS and IFNγ, FIG. 1C
# Protocol: THP-1 cells were treated with 100 nM phorbol 12-myristate 13-acetate (PMA) for 72 hours in RPMI 1640X media. Cells were rested in PMA free media 24 hours prior to treatments. LPS (10 ng/mL) was used for pro-inflammatory stimulation.
# THP-1 cells were treated with 10 μM of designated drug or vehicle (DMSO) and 24 hours after treatment, supernatant was added to Human Cytokine XL proteome array (R&D Systems) in accordance with manufacturer protocol. Chemiluminescence was used to visualize protein quantities.
# To evaluate the anti-inflammatory effects of compounds 3, 5, and 6, THP-1 human macrophages were stimulated with LPS and IFNγ in the presence of TAK1 inhibitor (10 μM) or vehicle.
# TAK1 [1] = biological target: T1, TAK1 (Homo sapiens (Human), UniProt O43318); experiment: TAK1 kinase inhibition IC50 (TABLE 1; FIG. 1B selectivity screening); type: biochemical
# Target sequence in this assay (O43318 31-303): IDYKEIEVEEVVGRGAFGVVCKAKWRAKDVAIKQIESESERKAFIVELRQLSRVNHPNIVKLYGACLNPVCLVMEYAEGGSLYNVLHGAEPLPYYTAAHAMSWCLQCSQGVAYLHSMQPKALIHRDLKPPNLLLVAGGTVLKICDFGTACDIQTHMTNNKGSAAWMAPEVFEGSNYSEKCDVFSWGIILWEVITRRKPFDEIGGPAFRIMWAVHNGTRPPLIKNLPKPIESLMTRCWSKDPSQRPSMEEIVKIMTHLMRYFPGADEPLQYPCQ
# Target sequence in this assay (Q15750 468-497 partner): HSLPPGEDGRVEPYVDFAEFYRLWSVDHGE
# IRAK4 = IRAK4 (Homo sapiens (Human), UniProt Q9NWZ3); experiment: IRAK4 kinase inhibition IC50 (TABLE 1; FIG. 1B selectivity screening); type: biochemical; conditions: for Ratio IC50 (IRAK4)/IC50 (TAK1): selectivity for TAK1 over IRAK4
# [2] = Pharmacokinetics after oral gavage in rats (plasma and urine, LC-MS); type: in vivo, Sprague Dawley rats
# Protocol: All serum/drug samples were frozen and stored at −80° C., unless otherwise specified. […] This internal standard solution was used for tissue homogenization. LC-MS analysis was performed at the Duke Proteomics and Metabolomics Core Facility.
# [3] = system: Enbrel® refractory arthritis; experiment: Enbrel refractory CIA rheumatoid arthritis mouse model; type: in vivo, mice; conditions: twice daily PO after etanercept days 21-30; n=6; FIG. 4E
# Description: To that end, a recently developed pre-clinical model of Enbrel® refractory arthritis was utilized, in which mice develop neutralizing antibodies towards Enbrel® causing disease relapse mirroring patient populations. Using this model, mice (n=6) were initially treated with Enbrel® on days 21-30 until loss of efficacy (determined by an arthritic score of 1.5) around study days 29 to 31 showing the development of neutralizing antibodies and disease progression. At this point, a first treatment group was switched to once daily vehicle (DMSO, PO) from day 30 to day 36, and a second treatment group was switched to twice daily compound 5 (PO).
# [4] = Maximum tolerated dose / 14-day oral toxicology study; type: in vivo; conditions: 5, 30, 50 and 100 mg/kg PO once daily, 14 days
# Protocol: Maximum tolerated dose studies and toxicology of compound 5 further established the safety and tolerance of this compound. Here, mice were treated daily with compound 5 (PO) at 5, 30, 50 and 100 mg/kg dosing for […] consecutive days. Daily body weights were taken as well as clinical observations.
# Next, and as further described in EXAMPLE 9, a 14-day toxicology study of orally administered compound 5 in CD-1 mice (n=4) was conducted, using daily oral doses of 5, 30, 50 and 100 mg/kg of compound 5. In this study, the change in body weight from baseline as well as the weight of various organs were measured.
# IRAK1 [5] = biological target: T2, IRAK1 (Homo sapiens (Human), UniProt P51617); experiment: Dose-response of top 10 kinases (FIG. 1A); type: biochemical; conditions: read-out: half maximal inhibitory concentration (IC50) IRAK1
# Protocol: (§1) Next, dose-response experiments of the top 10 kinases inhibited by compound 5 in the initial kinome screen were conducted as described in EXAMPLE 5. […] The top 10 kinases were selected in an initial kinome screen.
# NUAK = NUAK (Homo sapiens (Human), UniProt O60285); experiment: Dose-response of top 10 kinases (FIG. 1A); type: biochemical; conditions: read-out: half maximal inhibitory concentration (IC50) NUAK
# Protocol: as §1
# CAMKKβ-1 = CAMKKβ-1 (Homo sapiens (Human), UniProt Q96RR4); experiment: Dose-response of top 10 kinases (FIG. 1A); type: biochemical; conditions: read-out: half maximal inhibitory concentration (IC50) CAMKKβ-1
# Protocol: as §1
# MLK1 = MLK1 (Homo sapiens (Human), UniProt P80192); experiment: Dose-response of top 10 kinases (FIG. 1A); type: biochemical; conditions: read-out: half maximal inhibitory concentration (IC50) MLK1
# Protocol: as §1
# CSNK1G2 = CSNK1G2 (Homo sapiens (Human), UniProt P78368); experiment: Dose-response of top 10 kinases (FIG. 1A); type: biochemical; conditions: read-out: half maximal inhibitory concentration (IC50) CSNK1G2
# Protocol: as §1
# ULK2 [6] = biological target: T3, ULK2 (Homo sapiens (Human), UniProt Q8IYT8); experiment: Dose-response of top 10 kinases (FIG. 1A); type: biochemical; conditions: read-out: half maximal inhibitory concentration (IC50) ULK2
# Protocol: as §1
# GCK = GCK (Homo sapiens (Human), UniProt Q12851); experiment: Dose-response of top 10 kinases (FIG. 1A); type: biochemical; conditions: read-out: half maximal inhibitory concentration (IC50) GCK
# Protocol: as §1
# TAK1 [7] = biological target: T1, TAK1; experiment: Dose-response of top 10 kinases (FIG. 1A); type: biochemical; conditions: read-out: half maximal inhibitory concentration (IC50) TAK1
# Protocol: as §1
# Target sequence in this assay (O43318 1-303): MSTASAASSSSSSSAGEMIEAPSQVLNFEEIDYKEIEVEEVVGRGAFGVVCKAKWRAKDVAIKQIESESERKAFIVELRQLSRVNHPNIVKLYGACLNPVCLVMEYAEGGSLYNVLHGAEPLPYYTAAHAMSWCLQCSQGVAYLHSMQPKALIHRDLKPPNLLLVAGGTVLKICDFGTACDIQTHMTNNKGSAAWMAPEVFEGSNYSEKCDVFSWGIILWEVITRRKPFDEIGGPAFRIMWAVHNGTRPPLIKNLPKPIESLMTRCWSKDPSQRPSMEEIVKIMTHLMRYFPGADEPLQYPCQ
# Target sequence in this assay (Q15750 437-504 partner): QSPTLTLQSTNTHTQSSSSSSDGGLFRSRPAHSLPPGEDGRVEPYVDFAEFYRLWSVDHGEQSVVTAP
# MAP4K5 [8] = biological target: T4, MAP4K5 (Homo sapiens (Human), UniProt Q9Y4K4); experiment: Dose-response of top 10 kinases (FIG. 1A); type: biochemical; conditions: read-out: half maximal inhibitory concentration (IC50) MAP4K5
# Protocol: as §1
# CLK2 = CLK2 (Homo sapiens (Human), UniProt P49760); experiment: Dose-response of top 10 kinases (FIG. 1A); type: biochemical; conditions: read-out: half maximal inhibitory concentration (IC50) CLK2
# Protocol: as §1
# Water solubility = type: physicochemical
# [9] = system: Collagen Type II Induced Arthritis (CIA); experiment: CIA mouse model of inflammatory arthritis; type: in vivo, DBA/1 mice; conditions: for reduction of clinical arthritis score: QD, FIG. 5A; for reduction in disease clinical score (AUC): FIG. 5B
# IRAK1 [10] = biological target: T2, IRAK1; experiment: Kinase panel of 146 human kinases at 10 μM; type: biochemical
# Description: (§2) Kinome selectivity of compound 5 was further screened using a kinase panel of 146 human kinases representing all gene family members within the human kinome.
# NUAK1 = NUAK1 (Homo sapiens (Human), UniProt O60285); experiment: Kinase panel of 146 human kinases at 10 μM; type: biochemical
# Description: as §2
# ULK2 [11] = biological target: T3, ULK2; experiment: Kinase panel of 146 human kinases at 10 μM; type: biochemical
# Description: as §2
# CK1γ2 = CK1γ2 (Homo sapiens (Human), UniProt P78368); experiment: Kinase panel of 146 human kinases at 10 μM; type: biochemical
# Description: as §2
# TAK1 [12] = biological target: T1, TAK1; experiment: Kinase panel of 146 human kinases at 10 μM; type: biochemical
# Description: as §2
# Target sequence in this assay (O43318 1-303): as the sequence (O43318 1-303) above
# Target sequence in this assay (Q15750 437-504 partner): as the sequence (Q15750 437-504 partner) above
# MAP4K5 [13] = biological target: T4, MAP4K5; experiment: Kinase panel of 146 human kinases at 10 μM; type: biochemical
# Description: as §2
# [14] = Bioavailability of compound 1 (takinib); conditions: in vivo
# [15] = 50 mg/kg IP, all joints, FIG. 3E
# IRAK4, sequence (Q9NWZ3 whole entry): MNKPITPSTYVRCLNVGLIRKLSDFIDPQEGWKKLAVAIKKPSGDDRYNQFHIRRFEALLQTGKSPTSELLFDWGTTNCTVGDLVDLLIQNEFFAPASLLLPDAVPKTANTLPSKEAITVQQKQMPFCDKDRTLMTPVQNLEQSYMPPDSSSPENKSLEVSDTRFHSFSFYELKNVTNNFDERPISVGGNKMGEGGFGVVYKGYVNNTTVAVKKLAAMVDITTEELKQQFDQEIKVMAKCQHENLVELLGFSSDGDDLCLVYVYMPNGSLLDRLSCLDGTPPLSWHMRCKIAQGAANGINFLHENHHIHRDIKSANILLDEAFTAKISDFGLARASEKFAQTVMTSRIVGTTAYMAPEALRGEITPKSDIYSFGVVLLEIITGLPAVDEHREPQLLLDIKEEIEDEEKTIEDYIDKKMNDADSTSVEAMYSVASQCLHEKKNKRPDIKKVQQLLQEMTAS
# T2 sequence (P51617 whole entry): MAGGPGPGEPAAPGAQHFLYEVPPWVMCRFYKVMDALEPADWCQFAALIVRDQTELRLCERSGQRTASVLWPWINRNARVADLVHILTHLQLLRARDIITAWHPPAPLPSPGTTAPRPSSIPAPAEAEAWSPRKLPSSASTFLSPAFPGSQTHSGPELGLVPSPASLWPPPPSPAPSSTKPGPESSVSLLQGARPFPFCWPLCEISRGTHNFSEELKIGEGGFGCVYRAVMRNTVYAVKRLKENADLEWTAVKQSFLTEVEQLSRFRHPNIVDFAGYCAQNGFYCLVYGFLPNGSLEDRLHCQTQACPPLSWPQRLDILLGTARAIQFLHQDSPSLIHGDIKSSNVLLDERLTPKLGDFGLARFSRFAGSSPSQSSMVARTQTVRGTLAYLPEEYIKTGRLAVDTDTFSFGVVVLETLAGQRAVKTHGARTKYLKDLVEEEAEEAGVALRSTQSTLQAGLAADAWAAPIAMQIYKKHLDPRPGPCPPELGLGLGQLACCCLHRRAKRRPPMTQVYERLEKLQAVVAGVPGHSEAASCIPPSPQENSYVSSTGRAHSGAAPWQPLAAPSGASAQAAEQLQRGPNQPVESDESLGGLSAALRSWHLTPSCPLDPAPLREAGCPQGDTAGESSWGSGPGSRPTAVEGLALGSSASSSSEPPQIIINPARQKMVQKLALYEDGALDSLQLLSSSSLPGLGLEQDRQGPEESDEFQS
# T3 sequence (Q8IYT8 whole entry): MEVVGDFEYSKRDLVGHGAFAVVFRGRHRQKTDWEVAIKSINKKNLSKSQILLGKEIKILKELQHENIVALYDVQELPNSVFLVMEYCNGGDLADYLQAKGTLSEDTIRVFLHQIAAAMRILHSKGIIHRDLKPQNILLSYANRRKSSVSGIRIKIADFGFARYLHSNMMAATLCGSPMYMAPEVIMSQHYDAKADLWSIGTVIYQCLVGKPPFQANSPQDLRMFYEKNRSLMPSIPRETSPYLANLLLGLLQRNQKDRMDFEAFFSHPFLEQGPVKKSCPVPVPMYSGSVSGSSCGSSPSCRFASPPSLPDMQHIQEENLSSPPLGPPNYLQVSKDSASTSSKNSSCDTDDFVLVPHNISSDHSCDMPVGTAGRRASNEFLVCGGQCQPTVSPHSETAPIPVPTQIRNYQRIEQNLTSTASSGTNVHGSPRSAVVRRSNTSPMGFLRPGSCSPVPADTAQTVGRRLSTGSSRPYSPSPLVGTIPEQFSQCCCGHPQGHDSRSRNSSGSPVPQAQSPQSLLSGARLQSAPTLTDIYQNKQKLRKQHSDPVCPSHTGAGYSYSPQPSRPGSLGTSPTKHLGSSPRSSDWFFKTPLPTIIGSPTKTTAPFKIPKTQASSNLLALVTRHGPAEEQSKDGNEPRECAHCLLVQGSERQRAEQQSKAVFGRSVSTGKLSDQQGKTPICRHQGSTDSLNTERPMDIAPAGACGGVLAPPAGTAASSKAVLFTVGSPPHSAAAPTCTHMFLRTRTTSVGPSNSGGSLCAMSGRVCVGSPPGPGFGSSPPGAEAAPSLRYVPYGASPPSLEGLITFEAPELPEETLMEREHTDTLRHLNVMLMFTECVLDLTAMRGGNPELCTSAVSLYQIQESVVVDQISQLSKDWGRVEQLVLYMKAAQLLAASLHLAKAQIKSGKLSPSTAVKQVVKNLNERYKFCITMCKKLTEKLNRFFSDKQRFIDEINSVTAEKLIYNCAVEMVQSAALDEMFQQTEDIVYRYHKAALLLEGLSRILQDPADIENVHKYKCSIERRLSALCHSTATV
# T4 sequence (Q9Y4K4 whole entry): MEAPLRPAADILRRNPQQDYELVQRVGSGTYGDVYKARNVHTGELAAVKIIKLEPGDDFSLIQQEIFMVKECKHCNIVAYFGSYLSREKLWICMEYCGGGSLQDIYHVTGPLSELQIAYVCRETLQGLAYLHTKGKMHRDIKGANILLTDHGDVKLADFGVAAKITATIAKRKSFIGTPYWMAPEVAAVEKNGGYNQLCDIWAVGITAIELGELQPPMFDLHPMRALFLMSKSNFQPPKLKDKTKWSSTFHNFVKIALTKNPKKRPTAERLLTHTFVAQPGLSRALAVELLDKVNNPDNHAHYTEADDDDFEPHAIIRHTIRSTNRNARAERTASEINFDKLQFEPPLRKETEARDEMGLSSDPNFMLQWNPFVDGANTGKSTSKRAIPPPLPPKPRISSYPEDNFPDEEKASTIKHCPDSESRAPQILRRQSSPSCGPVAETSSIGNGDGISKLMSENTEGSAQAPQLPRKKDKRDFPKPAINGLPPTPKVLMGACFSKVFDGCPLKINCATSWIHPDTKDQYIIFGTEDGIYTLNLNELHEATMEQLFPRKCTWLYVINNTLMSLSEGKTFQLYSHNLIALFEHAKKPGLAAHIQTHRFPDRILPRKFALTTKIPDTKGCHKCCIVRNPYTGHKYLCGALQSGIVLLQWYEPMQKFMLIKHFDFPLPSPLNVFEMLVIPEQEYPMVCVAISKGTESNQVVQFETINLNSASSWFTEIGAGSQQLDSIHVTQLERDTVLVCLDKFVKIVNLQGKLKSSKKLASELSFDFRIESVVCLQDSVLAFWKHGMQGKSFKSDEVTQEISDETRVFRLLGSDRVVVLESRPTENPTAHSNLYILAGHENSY
# MLK1, sequence (P80192 whole entry): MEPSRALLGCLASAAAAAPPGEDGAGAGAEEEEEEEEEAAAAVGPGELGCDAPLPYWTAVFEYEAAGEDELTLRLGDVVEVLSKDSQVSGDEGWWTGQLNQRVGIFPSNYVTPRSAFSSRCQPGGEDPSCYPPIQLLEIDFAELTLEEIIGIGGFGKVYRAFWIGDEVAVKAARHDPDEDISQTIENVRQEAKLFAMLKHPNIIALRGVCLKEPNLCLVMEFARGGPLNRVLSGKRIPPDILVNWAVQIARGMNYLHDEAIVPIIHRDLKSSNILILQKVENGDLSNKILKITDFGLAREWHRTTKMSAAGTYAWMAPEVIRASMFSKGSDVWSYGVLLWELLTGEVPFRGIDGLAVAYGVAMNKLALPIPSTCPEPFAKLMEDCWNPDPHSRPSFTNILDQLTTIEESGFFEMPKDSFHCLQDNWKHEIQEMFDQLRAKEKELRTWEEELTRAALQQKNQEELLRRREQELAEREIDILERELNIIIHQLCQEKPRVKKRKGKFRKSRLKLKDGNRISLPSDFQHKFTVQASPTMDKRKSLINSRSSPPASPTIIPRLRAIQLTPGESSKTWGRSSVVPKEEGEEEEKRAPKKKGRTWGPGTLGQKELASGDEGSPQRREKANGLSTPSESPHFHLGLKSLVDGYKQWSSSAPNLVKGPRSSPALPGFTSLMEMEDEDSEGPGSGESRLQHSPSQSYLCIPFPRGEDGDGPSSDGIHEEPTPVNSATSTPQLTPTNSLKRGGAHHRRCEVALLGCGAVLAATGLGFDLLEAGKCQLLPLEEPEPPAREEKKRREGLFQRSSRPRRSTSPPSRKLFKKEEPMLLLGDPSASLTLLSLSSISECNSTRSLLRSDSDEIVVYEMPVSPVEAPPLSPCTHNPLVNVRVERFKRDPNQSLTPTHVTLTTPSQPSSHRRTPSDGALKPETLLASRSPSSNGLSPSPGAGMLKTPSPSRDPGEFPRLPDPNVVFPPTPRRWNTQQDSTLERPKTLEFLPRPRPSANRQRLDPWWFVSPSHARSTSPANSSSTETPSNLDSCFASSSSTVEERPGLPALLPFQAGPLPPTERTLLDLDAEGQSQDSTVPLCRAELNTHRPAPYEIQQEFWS
compound,measurement,setting,value
NC(=O)c1cccc(C(=O)/N=c2\[nH]c3cc(CN4CCCCC4)ccc3n2C2CCC(O)CC2)c1 (stereo not shown) [Compound 3],attenuation (reduction) of TNF expression,THP-1 human macrophages,2.5 fold
same,IC50,TAK1 [1]; read-out: IC50 (TAK1),2.8 nM
same,IC50,IRAK4; read-out: IC50 (IRAK4),8.5 nM
same,Ratio IC50 (IRAK4)/IC50 (TAK1),IRAK4,3
same,urine levels,[2]; 50 mg/kg oral gavage,M urine levels up to 24 hours post gavage
same,plasma levels across all timepoints,"[2]; 50 mg/kg oral gavage, 1-24 hours",low nM
CCCn1/c(=N/C(=O)c2cccc(C(N)=O)c2)[nH]c2ccc(CO)cc21 [Compound 4],IC50,TAK1 [1]; read-out: IC50 (TAK1),2.6 nM
same,IC50,IRAK4; read-out: IC50 (IRAK4),48 nM
same,Ratio IC50 (IRAK4)/IC50 (TAK1),IRAK4,18
CCCn1/c(=N/C(=O)c2cccc(C(N)=O)c2)[nH]c2ccc(CN3CCCCC3)cc21 [Compound 5],attenuation (reduction) of TNF expression,THP-1 human macrophages,11 fold
same,IC50,"TAK1 [1]; selectivity screening, FIG. 1B, read-out: TAK1 inhibition IC50",2.5 nM
same,IC50,IRAK4; read-out: IC50 (IRAK4),2500 nM
same,IC50,"IRAK4; selectivity screening, FIG. 1B, read-out: IRAK4 inhibition IC50",2510 nM
same,reduction of arthritis score vs etanercept-refractory animals switched to vehicle,[3],40%
same,blood chemistries or complete blood counts,[4],no significant differences
same,body weight change,[4],no significant weight loss
same,morbidity,[4],no signs of morbidity
same,"relative organ weights (liver, heart, thymus, kidneys, brain, spleen)",[4],no significant weight loss; also recorded: did not cause any significant or dose-dependent changes; also recorded: not cause a significant or dose-dependent change
same,IC50,IRAK1 [5],264 nM
same,IC50,NUAK,270 nM
same,IC50,CAMKKβ-1,1280 nM
same,IC50,MLK1,5590 nM
same,IC50,CSNK1G2,809 nM
same,IC50,ULK2 [6],63 nM
same,IC50,GCK,33 nM
same,IC50,TAK1 [7],8 nM
same,IC50,MAP4K5 [8],124 nM
same,IC50,CLK2,29 nM
same,time of Cmax post gavage,[2]; 50 mg/kg oral gavage,2 h
same,time post gavage up to which M (μM) plasma concentration was shown,[2]; 50 mg/kg oral gavage,8 to 12 h
same,peak in urine concentration,"[2]; 50 mg/kg oral gavage, at 12 hours",100 µM
same,Cmax,"[2]; male, Sprague Dawley, rat, plasma, 50 mg/kg oral gavage",1890 nM
same,oral bioavailability,"[2]; rat, in vivo, po",high
same,water solubility,Water solubility,good
same,reduction of clinical arthritis score,"[9]; 10 mg/kg, PO",18%
same,reduction of clinical arthritis score,"[9]; 30 mg/kg, PO",35%
same,reduction of AUC of clinical arthritis scores vs disease control,"[9]; 50 mg/kg IP, QD days 21-26, Q2D days 27-36, FIG. 3C",85%
same,disease incidence on day 36,"[9]; 50 mg/kg IP, QD days 21-26, Q2D days 27-36, n=12",75%
same,reduction of bone resorption score vs vehicle,[9]; [15],87%
same,reduction of cartilage damage score vs vehicle,[9]; [15],76%
same,reduction of inflammation score vs vehicle,[9]; [15],62%
same,reduction of pannus score vs vehicle,[9]; [15],86%
same,reduction of periosteal bone formation score vs vehicle,[9]; [15],93%
same,reduction in clinical arthritis scores vs vehicle,"[9]; 50 mg/kg, IP, once daily, FIG. 4A",85%
same,reduction in disease clinical score (AUC),"[9]; IP dosing (25 mg/kg, QD)",36%
same,reduction in disease clinical score (AUC),[9]; oral dosing (PO),35%
same,enzymatic activity of IRAK1,IRAK1 [10],< 15 % enzymatic activity
same,enzymatic activity of NUAK1,NUAK1,< 15 % enzymatic activity
same,enzymatic activity of ULK2,ULK2 [11],< 15 % enzymatic activity
same,enzymatic activity of CK1γ2,CK1γ2,< 15 % enzymatic activity
same,enzymatic activity of TAK1,TAK1 [12],< 15 % enzymatic activity
same,enzymatic activity of MAP4K5,MAP4K5 [13],< 15 % enzymatic activity
NC(=O)c1cccc(C(=O)/N=c2\[nH]c3ccc(CO)cc3n2[C@H]2CC[C@H](O)CC2)c1 [Compound 7],IC50,TAK1 [1]; read-out: IC50 (TAK1),1.6 nM
same,IC50,IRAK4,8.2 nM
same,Ratio IC50 (IRAK4)/IC50 (TAK1),IRAK4,5
"CN(Cc1cnc2nc(N)nc(N)c2n1)c1ccc(C(=O)N[C@@H](CCC(=O)O)C(=O)O)cc1 [methotrexate, reference compound]",reduction in clinical arthritis scores vs vehicle,"[9]; 1 mg/kg, PO, once daily, FIG. 4C",72%
"C[C@@H]1CCN(C(=O)CC#N)C[C@@H]1N(C)c1ncnc2[nH]ccc12 [tofacitinib, reference compound]",TNF secretion,"THP-1 human macrophages; LPS and IFNγ challenge, FIG. 1D",minimal to no TNF reduction
same,reduction in clinical arthritis scores vs vehicle,"[9]; 30 mg/kg, PO, twice daily (BID), FIG. 4D",50%
etanercept,reduction in clinical arthritis scores vs vehicle,"[9]; 10 mg/kg, IP, once daily, FIG. 4B",57%
"takinib [Compound 1, reference compound]",IC50,TAK1 [1]; read-out: IC50 (TAK1),9 nM
same,bioavailability,[14],low
same,affinity for IRAK4 less than TAK1,IRAK4,~12 fold
same,IC50,IRAK4; read-out: IC50 (IRAK4),120 nM
same,Ratio IC50 (IRAK4)/IC50 (TAK1),IRAK4,13
